Active and inactive are the calls of the source. No cut-off for these calls is given here.
Key:
[1] = Toxicity in BALB/c mouse assessed as HCT at 40 mg/kg, ip administered once daily for 14 days (reference value: 49.08 +/- 1.56 %); assay type: organism-based; settings: in vivo, 336 h, time 14 day
ECa-109 cell line [2] = assay: Antiproliferative activity against human EC109 cells assessed as inhibition of cell growth incubated for 72 hrs by SRB assay; assay type: functional, cell-based; settings: ECa-109, 72 h
[3] = Toxicity in BALB/c mouse assessed as effect on WBC level at 40 mg/kg, ip administered once daily for 14 days (reference value: 4.42 +/- 0.79 10^9/L); assay type: organism-based; settings: in vivo, 336 h, time 14 day
HUVEC [4] = assay: Cytotoxicity against HUVEC assessed as reduction in survival rate at 0 to 8 uM by SRB assay; assay type: cell-based; settings: human, TDE = time-dependent effect, dose 0-8 µM
ECa-109 cell line [5] = assay: Induction of apoptosis in human EC-109 cells xenografted in nude BALB/c mouse assessed as nuclear shrinkage at 20 to 40 mg/kg, ip administered once daily for 14 days by H and E staining based histopathological analysis; assay type: functional, organism-based; settings: dose 20-40 mg/kg, time 14.0 day
ECa-109 cell line [6] = assay: Induction of apoptosis in human EC109 cells assessed as change in phosphorylated ASK1 expression at 3 uM incubated for 24 hrs in presence of N-acetylcysteine by Western blot analysis; assay type: functional, cell-based
ECa-109 cell line [7] = assay: Induction of apoptosis in human EC-109 cells assessed as apoptotic rate at 3 uM after 24 hrs by Annexin V-FITC/propidium iodide staining based flow cytometry (reference value: 5.3 %); assay type: functional
ECa-109 cell line [8] = assay: Antiproliferative activity against human EC109 cells assessed as reduction in survival rate after 24 to 72 hrs by SRB assay; assay type: functional, cell-based; settings: time 24-72 hrs
ECa-109 cell line [9] = assay: Induction of apoptosis in human EC109 cells assessed as increase in phosphorylated JNK expression incubated for 24 hrs by Western blot analysis; assay type: functional, cell-based
ECa-109 cell line [10] = assay: Antitumor activity against human EC109 cells xenografted in BALB/c mouse assessed as reduction in tumor weight at 20 mg/kg, ip administered every day for 14 days; assay type: functional, organism-based; settings: time 14.0 day
ECa-109 cell line [11] = assay: Induction of apoptosis in human EC-109 cells assessed as apoptotic rate at 3 uM preincubated with N-acetylcysteine for 4 hrs followed by compound addition and measured after 48 hrs by Annexin V-FITC/propidium iodide staining based flow cytometry (reference value: 3.8 %); assay type: functional
ECa-109 cell line [12] = assay: Induction of apoptosis in human EC-109 cells xenografted in BALB/c mouse assessed as change in Bax expression in tumor tissue at 20 mg/kg, ip QD for 14 days by Western blotting analysis relative to control; assay type: functional, organism-based; settings: time 14.0 day
ECa-109 cell line [13] = assay: Induction of apoptosis in human EC109 cells assessed as increase in cytochrome C protein expression incubated for 24 hrs by Western blot analysis; assay type: functional, cell-based
ECa-109 cell line [14] = assay: Induction of mitochondrial depolarization in human EC-109 cells assessed as depolarized cell population at 0.75 uM measured after 24 hrs by JC1 dye based flow cytometry (reference value: 4.2 %); assay type: functional
ECa-109 cell line [15] = assay: Antiproliferative activity against human EC109 cells assessed as inhibition of cell growth at 0.06 to 4 uM preincubated with N-acetylcysteine for 4 hrs followed by compound addition and measured after 24 hrs by SRB assay; assay type: functional, cell-based; settings: dose 0.06-4 µM
GES1 [16] = assay: Cytotoxicity against human GES1 cells assessed as inhibition of cell growth incubated for 72 hrs by SRB assay; assay type: cell-based; settings: GES1, 72 h
ECa-109 cell line [17] = assay: Induction of apoptosis in human EC109 cells assessed as increase in Bad expression after 24 hrs by Western blot analysis; assay type: functional, cell-based
ECa-109 cell line [18] = assay: Induction of apoptosis in human EC109 cells assessed as increase in cleaved caspase 9 expression after 24 hrs by Western blot analysis; assay type: functional, cell-based
[19] = Toxicity in BALB/c mouse assessed as effect on uric acid content at 20 to 40 mg/kg, ip administered once daily for 14 days; assay type: organism-based; settings: in vivo, 336 h, dose 20-40 mg/kg, time 14 day
ECa-109 cell line [20] = assay: Induction of apoptosis in human EC109 cells assessed as activation of c-jun phosphorylation at Ser63 residue at 0.75 to 3 uM incubated for 24 hrs by Western blot analysis; assay type: functional, cell-based; settings: dose 0.75-3 µM
GES1 [21] = assay: Cytotoxicity against human GES1 cells assessed as reduction in survival rate after 24 to 72 hrs by SRB assay; assay type: cell-based; settings: time 24-72 hrs
[22] = Toxicity in BALB/c mouse assessed as abnormalities in heart at 20 to 40 mg/kg, ip administered once daily for 14 days by HE staining based assay; assay type: organism-based; settings: in vivo, 336 h, dose 20-40 mg/kg, time 14 day
[23] = Toxicity in BALB/c mouse assessed as effect on glomeruli in kidney at 20 to 40 mg/kg, ip administered once daily for 14 days by HE staining based assay; assay type: organism-based; settings: in vivo, 336 h, dose 20-40 mg/kg, time 14 day
ECa-109 = assay: Inhibition of clone formation in human EC109 cells at 0.125 to 0.5 uM after 7 days by crystal violet staining based assay; assay type: functional, cell-based; settings: dose 0.125-0.5 µM, time 7.0 day
HUVEC [24] = assay: Cytotoxicity against HUVEC assessed as inhibition of cell growth incubated for 72 hrs by SRB assay; assay type: cell-based; settings: Homo sapiens
ECa-109 cell line [25] = assay: Induction of apoptosis in human EC109 cells assessed as increase in cleaved caspase 7 expression after 24 hrs by Western blot analysis; assay type: functional, cell-based
ECa-109 cell line [26] = assay: Induction of apoptosis in human EC-109 cells xenografted in BALB/c mouse assessed as increase in cleaved caspase 9 in tumor tissue at 40 mg/kg, ip QD for 14 days by Western blotting analysis relative to control; assay type: functional, organism-based; settings: time 14.0 day
ECa-109 cell line [27] = assay: Induction of mitochondrial depolarization in human EC-109 cells assessed as depolarized cell population at 3 uM preincubated with N-acetylcysteine for 4 hrs followed by compound addition and measured after 24 hrs by JC1 dye based flow cytometry (reference value: 4.2 %); assay type: functional
ECa-109 cell line [28] = assay: Induction of morphological changes in human EC109 cells assessed as appearance of contracted and rounded cells in presence of N-acetylcysteine; assay type: functional, cell-based
ECa-109 cell line [29] = assay: Induction of apoptosis in human EC-109 cells assessed as apoptotic rate at 1.5 uM after 48 hrs by Annexin V-FITC/propidium iodide staining based flow cytometry (reference value: 3.2 %); assay type: functional
ECa-109 cell line [30] = assay: Induction of apoptosis in human EC-109 cells xenografted in BALB/c mouse assessed as increase in phosphorylated JNK in tumor tissue at 20 to 40 mg/kg, ip QD for 14 days by Western blotting analysis; assay type: functional, organism-based; settings: dose 20-40 mg/kg, time 14.0 day
ECa-109 cell line [31] = assay: Induction of apoptosis in human EC109 cells assessed as reduction in Bcl-2 protein expression incubated for 24 hrs by Western blot analysis; assay type: functional, cell-based
ECa-109 cell line [32] = assay: Antiproliferative activity against human EC109 cells assessed as reduction in survival rate at 0 to 8 uM by SRB assay; assay type: functional, cell-based; settings: dose 0-8 µM, TDE = time-dependent effect
[33] = Toxicity in BALB/c mouse assessed as effect on red pulp and white pulp distribution in spleen at 20 to 40 mg/kg, ip administered once daily for 14 days by HE staining based assay; assay type: organism-based; settings: in vivo, 336 h, dose 20-40 mg/kg, time 14 day
[34] = Toxicity in BALB/c mouse assessed as PLT at 40 mg/kg, ip administered once daily for 14 days (reference value: 788.60 +/- 71.35 10^9/L); assay type: organism-based; settings: in vivo, 336 h, time 14 day

Compound: C=C1C(=O)[C@@]23[C@H](O)C[C@@H]4C(C)(C)CCC[C@@]4(COC(C)=O)[C@@H]2[C@@H](O)C[C@H]1[C@H]3OC(=O)c1ccc(CCl)cc1
- Activity [1]: 46.26%
- IC50 (ECa-109 cell line [2]): 130 nM
- Activity [3]: 4.21 10^9/L
- Activity (HUVEC [4]): Tde
- Activity (ECa-109 cell line [5]): Active
- Activity (ECa-109 cell line [6]): inactive
- Activity (ECa-109 cell line [7]): 45.4%
- inhibition (ECa-109 cell line [8]): Dose-dependent effect
- Activity (ECa-109 cell line [9]): Dose-dependent effect
- inhibition (ECa-109 cell line [10]): Active
- Activity (ECa-109 cell line [11]): 4.8%
- Activity (ECa-109 cell line [12]): inactive
- Activity (ECa-109 cell line [13]): Dose-dependent effect
- Activity (ECa-109 cell line [14]): 26.3%
- inhibition (ECa-109 cell line [15]): inactive
- IC50 (GES1 [16]): 520 nM
- Activity (ECa-109 cell line [17]): Dose-dependent effect
- Activity (ECa-109 cell line [18]): Dose-dependent effect
- Activity [19]: Non-Toxic
- Activity (ECa-109 cell line [20]): Active
- inhibition (INH) (GES1 [21]): Dose-dependent effect
- Activity [22]: Non-Toxic
- Activity [23]: Non-Toxic
- inhibition (ECa-109): Active
- IC50 (HUVEC [24]): 490 nM
- Activity (ECa-109 cell line [25]): Dose-dependent effect
- Activity (ECa-109 cell line [26]): Active
- Activity (ECa-109 cell line [27]): 4%
- Activity (ECa-109 cell line [28]): inactive
- Activity (ECa-109 cell line [29]): 93.1%
- Activity (ECa-109 cell line [30]): Active
- Activity (ECa-109 cell line [31]): Dose-dependent effect
- inhibition (ECa-109 cell line [32]): Tde
- Activity [33]: Non-Toxic
- Activity [34]: 832.8 10^9/L
